According to patent publication US20230165843A1, “USE AND PHARMACEUTICAL COMPOSITION OF PHENYLISOXAZOLYL METHYLENE-NAPHTHALENE-ETHER DERIVATIVES” (priority 2019, published 2023):

Legend:
[1] = tested on: HBV (D type); experiment: PHH (Primary Human Hepatocyte) Assay, HBV infection; format: cell-based, hepatitis B virus; details: PHH cells infected with HBV (D type); for inhibition of HBV RNA: culture supernatant day 9, RT-qPCR, FIG. 3; for inhibition of extracellular HBV DNA: culture supernatant day 9, qPCR, FIG. 1; for inhibition of HBsAg: culture supernatant day 9, FIG. 2
Description: PHH (Primary Human Hepatocyte) Assay: Cell Line and Compound Treatment
The PHH cells were seeded into the 48-well plates at the density of 1.32×10^5 cells/well. The PHH cells seeding date was defined as day 0. The PHH cells were infected with HBV (D type) at 1600 GE/cell on day 1. The culture medium containing compounds was refreshed on day 2, 4, 6 and day 8. On day 9, the cells were treated with CCK8 and culture supernatant and cells were collected.
FXR Compounds were tested at 10000.0, 3000.0, 1000.0, 300.0, 100.0, 30.0, and 10.0 nM, and ETV was tested at 0.2000, 0.0667, 0.0222, 0.0074, 0.0025, 0.0008, and 0.0003 nM. 1% DMSO was used as non-treatment control. The supernatants on day 9 were collected, and analyzed for HBV DNA by qPCR, HBV RNA by RT-qPCR, HBsAg and HBeA by ELISA.
DNA in the culture supernatants was isolated with the QIAamp 96 DNA Blood Kit according to the manual and quantified by the qPCR. 80 μl of the culture supernatants sample was used to extract DNA. The elution volume was 120 μl. The PCR mix (8 μl/well) and the samples (2 μl/well) or plasmid standards (2 μl/well) were added to the 384-well optical reaction plate and performed using the following program: 95C for 10 min, then cycling at 95° C. 15 sec, 60° C. 1 min for 40 cycles.
RNA in the culture supernatants was isolated with the PureLink™ Pro 96 Viral RNA Kit according to the manual. 35 μl of the culture supernatants sample was used to extract RNA. The elution volume was 100 μl. HBV RNA was quantified by RT-qPCR.
For HepG2-NTCP Assay, HBsAg and HBeAg in the samples harvested on day 9 were measured by the HBsAg ELISA kit (Autobio) and HBeAg ELISA kit (Autobio) according to the manual. For PHH assay, Chemiluminescence Apparatu was used to measure HBsAg according to the Antu HBsAg ELISA kit manual.
% HBV DNA inhibition=(1−HBV DNA copy number of test sample/avg. HBV DNA copy number of 1% DMSO control)×100%
% HBV RNA inhibition=(1−HBV RNA copy number of test sample/avg. HBV RNA copy number of 1% DMSO control)×100%
% HBsAg inhibition=(1−HBsAg quantity of sample/HBsAg quantity of 1% DMSO control)×100%
The EC50 and CC50 values were determined by dose-response curves fitted by GraphPad Prism using “log (agonist) vs. response-variable slope”.

[2] = tested on: HBV (rAAV8-1.3HBV); experiment: AAV/HBV Mouse Model; format: in vivo, mice
Text: AAV/HBV Mouse Model and Compound Treatment
Male C57BL′6 mice of 5-week old (obtained from Shanghai Jihui Laboratory Animal Care Co., Ltd) were given rAAV8-1.3HBV (1×1011 v.g.) via tail vein to establish infection on Day −28. After 14 days, 21 days, and on Day −4, blood was drawn from submandibular vein to determine the level of HBV DNA, and HBsAg. On Day-4, 40 mice were chosen based on HBV DNA, and HBsAg results, and were randomly assigned to 5 groups. After the mice were infected with HBV virus for 28 days, treatment was given orally once per day, for 4 weeks. Group 1 was given vehicle (0.5% CMC-Na, 10 ml/kg), Group 2 was given positive control ETV (0.1 mg/kg). Groups 3, 4, and 5 were given Compound 33 at 10 mg/kg, 30 mg/kg, and 60 mg/kg, respectively. Blood was drawn from submandibular vein every week to determine the concentration of HBV DNA, HBV RNA, and HBsAg. On Day 28, blood was taken from the heart.
HBV DNA determination by qPCR. DNA in the mice plasma was isolated with the QIAamp 96 DNA Blood Kit according to the manual and quantified by the qPCR, and performed using the following program: 95C for 10 min, then cycling at […] 15 sec, 60° C. 1 min for 40 cycles.
HBV RNA determination by qPCR. RNA in the mice plasma was isolated with the PureLink™ Pro 96 Viral RNA/DNA Kit according to the manual. 20 μl of the plasma was used to extract RNA
HBsAg determination by ELISA. HBsAg in the samples was measured by the HBsAg ELISA kit (Autobio) according to the manual. Briefly, after the plasma was diluted 1200× in a coated plate, and incubate with the enzyme conjugated ([…], 60 min), and the plate was washed 5 time. Substrate was added, and it was kept from light at room temperature for 10 min and intensity was measured by a plated reader.
Average±Standard deviation was calculated for each group, and analyzed with Student's t-test.

[3] = positive control 0.1 mg/kg orally once per day, 4 weeks

SMILES	inhibition of HBV RNA [1]	inhibition of extracellular HBV DNA [1]	inhibition of HBsAg [1]	HBsAg, lowered as compared to the vehicle group ([2]; high dose group 60 mg/kg orally once per day, 28 days, FIG. 6)	HBV RNA, lower than the vehicle group ([2]; high dose group 60 mg/kg orally once per day, 28 days, significantly lower than vehicle (p<0.01), FIG. 5)	HBV DNA, lower than the vehicle group ([2]; high dose group 60 mg/kg orally once per day, 28 days, significantly lower than vehicle (p<0.05), FIG. 4)	effect on HBV RNA as compared to the vehicle group [2, 3]	effect on HBsAg as compared to the vehicle group [2, 3]
O=C(O)c1ccc(Oc2ccc3cc(OCc4c(-c5c(Cl)cccc5Cl)noc4C4CC4)ccc3c2)nc1 [Compound 1, 6-((6-((5-cyclopropyl-3-(2,6-dichlorophenyl)isoxazol-4-yl)methoxy)naphthalen-2-yl)oxy)nicotinic acid]	dose-dependent inhibition	dose-dependent inhibition	dose-dependent inhibition					
O=C(O)c1ccc(Oc2cccc3cc(OCc4c(-c5c(Cl)cccc5Cl)noc4C4CC4)ccc23)nc1 [Compound 22, 6-((6-((5-cyclopropyl-3-(2,6-dichlorophenyl)isoxazol-4-yl)methoxy)naphthalen-1-yl)oxy)nicotinic acid]	dose-dependent inhibition	dose-dependent inhibition	dose-dependent inhibition					
Cc1nc(Oc2cccc3cc(OCc4c(-c5c(Cl)cccc5Cl)noc4C4CC4)ccc23)ccc1C(=O)O [Compound 27, 6-((6-((5-cyclopropyl-3-(2,6-dichlorophenyl)isoxazol-4-yl)methoxy)naphthalen-1-yl)oxy)-2-methylnicotinic acid]	dose-dependent inhibition	dose-dependent inhibition	dose-dependent inhibition					
O=C([O-])c1ccc(Oc2ccc3cc(OCc4c(-c5c(Cl)cccc5Cl)noc4C4CC4)ccc3c2)nc1.[Na+] [Compound 33, Sodium 6-((6-((5-cyclopropyl-3-(2,6-dichlorophenyl)isoxazol-4-yl)methoxy)naphthalen-2-yl)oxy)nicotinate]				0.38 log 10 [IU/ml]	0.60-0.66 log 10[RNA copy/uL]	0.77-1.12 log 10[DNA copy/uL]		
C=C1[C@H](CO)[C@@H](O)C[C@@H]1n1cnc2c(=O)[nH]c(N)nc21 [ETV, entecavir, reference compound]	no significant inhibition	significant inhibition	no significant inhibition				no significant effect	no significant effect
